Like-named read-outs stand apart in the source and are kept apart here.
Experiments:
[1] = Metabolic study on prevention of kidney stone formation: alkali load, urinary stone risk factors, urinary saturation; type: in vivo, human; conditions: two-week phase, 24-hour urine; for urinary ammonium / net gastrointestinal absorption of alkali: change from placebo phase; for net gastrointestinal absorption of alkali: postmenopausal women, constant diet
Source text: A total of eighteen postmenopausal women without kidney stones underwent four phases of study chosen in random order while they were kept on a constant diet in a metabolic ward. […] During last two days of each phase, urine was collected in 24-hour pools for biochemistry and stone risk factors.
Provision of alkali load. […] If an alkali load is delivered, the net gastrointestinal absorption of alkali (calculated from urinary electrolytes) increases and urinary ammonium decreases (as a normal response of kidneys to alkali).

[2] = cited from earlier work
[3] = Metabolic study on preventing bone loss: serum calcium, parathyroid hormone, bone turnover markers; type: in vivo, human; conditions: for decline in markers of bone resorption (urinary hydroxyproline, urinary N-telopeptide, serum type 1 collagen C-telopeptide): change from placebo phase; for serum calcium / serum parathyroid hormone: last two days of two-week phase
Description: During the last two days of each two-week phase, serum and 24-hour urine samples were collected for assessment of calcium metabolism, alkali load, and bone turnover markers.
Markers of bone turnover. The effect of treatment on bone resorption (destruction) was evaluated from urinary hydroxyproline, urinary N-telopeptide, and serum type 1 collagen C-telopeptide. These bone-derived substances are called markers of bone resorption, since they are elevated in states of high bone destruction.

[4] = cited from earlier work; for bone mineral density: early postmenopausal women, Ruml et al., 1999

O=C([O-])CC(O)(CC(=O)[O-])C(=O)[O-].[K+].[K+].[K+] [potassium citrate]
urinary ammonium [1]: reduced | net gastrointestinal absorption of alkali [1]: significantly and substantially increased | urinary calcium [1]: decreased | urinary citrate [1]: increased in the same direction | urinary oxalate [1]: unaffected | urinary pH [1]: significantly and substantially rose | urinary saturation of calcium oxalate [1]: declined | bone density ([2]; Pak et al., 2001): increase bone density | calcium loss into urine ([2]; Sakhaee et al., 1991): prevent calcium loss into urine | urinary citrate ([2]; literature): effective in increasing urinary citrate | decline in markers of bone resorption (urinary hydroxyproline, urinary N-telopeptide, serum type 1 collagen C-telopeptide) [3]: least prominent | serum calcium [3]: did not change | serum parathyroid hormone [3]: did not change

O=C([O-])[O-].[Ca+2] [calcium carbonate]
bone mineral density [4]: only partially effective

O=C([O-])CC(O)(CC(=O)[O-])C(=O)[O-].O=C([O-])CC(O)(CC(=O)[O-])C(=O)[O-].[Ca+2].[Ca+2].[Ca+2] [calcium citrate]
urinary ammonium [1]: slightly but significantly decreased | net gastrointestinal absorption of alkali [1]: marginally increased | urinary calcium [1]: increased | urinary citrate [1]: increased in the same direction | urinary oxalate [1]: decreased significantly | urinary pH [1]: increased marginally | urinary saturation of calcium oxalate [1]: increased marginally | decline in markers of bone resorption (urinary hydroxyproline, urinary N-telopeptide, serum type 1 collagen C-telopeptide) [3]: intermediate | serum calcium [3]: increased slightly | serum parathyroid hormone [3]: significantly decreased | urinary citrate ([4]; calcium citrate supplementation, literature): modestly increases | bone mineral density [4]: prevent, though not increase

Source: patent publication US8216614B2 (The Board of Regents of the University of Texas Systems, priority 2005, dated 2012)
